Source: article PMC12649290 (Journal of Clinical Pharmacology, 2025)

Key:
[1] = Population pharmacokinetic (popPK) model developed on OSIBOOST trial plasma concentrations (NONMEM); format: in vivo, human; settings: for CL/F, Population Estimate (RSE%) / V/F, Population Estimate (RSE%): allometrically scaled on bodyweight of 70 kg; for CL/F, Population Estimate (RSE%): exponent 0.75; for V/F, Population Estimate (RSE%): exponent 1; for CL/F, Bootstrap Median / V/F, Bootstrap Median: non-parametric bootstrap n = 1000
Method: The data used in this study were obtained from the OSIBOOST clinical trial (NCT03858491).[15] The trial was approved by an independent medical ethics committee (METC19‐013) and was conducted in accordance with the 1964 Helsinki declaration (and its amendments). All patients provided written informed consent. Patients were included from one academic medical center and a specialized tertiary referral center in the Netherlands (the Maastricht University Medical Centre and the Antoni van Leeuwenhoek hospital). […] After 21 days of concomitant treatment with cobicistat (to reach steady state), PK samples (pre‐dose, 0.5‐1.5 h, 2.5‐3.5 h, 7‐8 h) of the concomitant therapy were collected.
PK data were analyzed with NONMEM version 7.4.4, Perl‐speaks‐NONMEM (PsN) version 5.4.0, R version 4.4.2, and Rstudio version 2024.09.0. The packages xpose, tidyvpc, mrgsolve, and ggplot2 in R were used for plotting and simulations.
A base popPK model was developed with the data from osimertinib monotherapy, using the first‐order conditional estimation method with interaction (FOCE‐I). […] Parameter changes were tested with stepwise inclusion and backward elimination. A decrease of more than −3.84 ΔOFV (P < .05) was considered a significant improvement when a single parameter was added to nested models. For backward elimination, a stricter criterion of 6.63 ΔOFV (P < .01) was used when removing a parameter from the popPK model.[25] One‐compartment and two‐compartment models were tested to best describe the data. Exponential between subject variability (BSV) on the popPK parameters was explored in a step‐wise approach. Residual error was tested as an additional, proportional, and a combined error model.
Developed popPK models were evaluated based on successful minimization, change in objective function value (ΔOFV), numerical diagnostics, standard goodness of fit (GOF) plots, and conditional weighted residuals (CWRES) plots. The performance of the developed popPK models was assessed with prediction‐corrected visual predictive check (pcVPC) and normalized prediction distribution error (NPDE) plots.[27] For the final popPK model, the median parameter estimate and 95% confidence interval (CI) were obtained non‐parametric bootstrap procedure (n = 1000) and can be considered as an internal validation.[28], [29] Relative standard errors (RSE%) of estimated parameters were acceptable when <30%.[30] A condition number was considered acceptable if […].[30] Both η‐shrinkage and ε‐shrinkage were considered appropriate if <30%.[31]

[2] = cited from earlier work
[3] = cited from earlier work; remark: listed apart in the source

CL/F, Population Estimate (RSE%) [1]	V/F, Population Estimate (RSE%) [1]	CL/F, Bootstrap Median [1] [L/h]	V/F, Bootstrap Median [1] [L]	Coefficient of variation (CV%) of the BSV on CL/F ([1]; in vivo) [%]	Compound	Increase of osimertinib exposure (mean AUC0‐24h) by cobicistat ([2]; 11 patients with Cmin,SS ≤ 195 µg/L, noncompartmental analysis) [%]	Adverse events of cobicistat boosted osimertinib ([2]; 11 patients with low osimertinib exposure)	Increase in osimertinib exposure when combined with itraconazole [3] [%]
47.3 (7.8%) L/h	184 (48.5%) L	46.3	181		C=CC(=O)Nc1cc(Nc2nccc(-c3c[nH]c4ccccc34)n2)c(OC)cc1N(C)CCN(C)C [AZ5104]			
					CC(C)c1nc(CN(C)C(=O)N[C@@H](CCN2CCOCC2)C(=O)N[C@H](CC[C@H](Cc2ccccc2)NC(=O)OCc2cncs2)Cc2ccccc2)cs1 [cobicistat]	50	without any grade ≥3 adverse events (AEs) or new safety signals	
					CCC(C)n1ncn(-c2ccc(N3CCN(c4ccc(OCC5COC(Cn6cncn6)(c6ccc(Cl)cc6Cl)O5)cc4)CC3)cc2)c1=O (stereo not drawn) [itraconazole]			24
19.0 (8.5%) L/h	990 (29%) L	19.0	966	21.5	C=CC(=O)Nc1cc(Nc2nccc(-c3cn(C)c4ccccc34)n2)c(OC)cc1N(C)CCN(C)C [osimertinib]			
